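Test compounds were applied to cells in 96-well plates for 48 hours at 5 doses. The concentration for full growth arrest is given as TGI.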
What was measured:
Assay in all cases: growth of human tumour cells (NCI), 48 h
[1] = tested on: SF-268 CNS
[2] = tested on: COLO 205 colon
[3] = tested on: SK-MEL-5 melanoma
[4] = tested on: NCI-H226 lung
[5] = tested on: K-562 leukemia
[6] = tested on: HCC-2998 colon
[7] = tested on: CAKI-1 renal
[8] = tested on: ACHN renal
[9] = tested on: M14 melanoma
[10] = tested on: OVCAR-4 ovarian
[11] = tested on: NCI/ADR-RES ovarian
[12] = tested on: TK-10 renal
[13] = tested on: SNB-19 CNS
[14] = tested on: SF-539 CNS
[15] = tested on: SW-620 colon
[16] = tested on: DU-145 prostate
[17] = tested on: HCT-15 colon
[18] = tested on: MDA-MB-231 breast
[19] = tested on: IGROV1 ovarian
[20] = tested on: T-47D breast
[21] = tested on: MALME-3M melanoma
[22] = tested on: NCI-H460 lung
[23] = tested on: NCI-H23 lung
[24] = tested on: SK-MEL-2 melanoma
[25] = tested on: SK-OV-3 ovarian
[26] = tested on: HOP-92 NSCLC
[27] = tested on: U251 CNS
[28] = tested on: OVCAR-8 ovarian
[29] = tested on: SNB-75 CNS
[30] = tested on: HT29 colon
[31] = tested on: MCF7 breast
[32] = tested on: SK-MEL-28 melanoma
[33] = tested on: OVCAR-3 ovarian
[34] = tested on: MDA-N
[35] = tested on: KM12 colon
[36] = tested on: PC-3 prostate
[37] = tested on: LOX IMVI melanoma
[38] = tested on: A498 renal
[39] = tested on: UACC-62 melanoma
[40] = tested on: NCI-H522 lung
[41] = tested on: SN12C renal
[42] = tested on: A549 NSCLC
[43] = tested on: RXF 393 renal
[44] = tested on: RPMI-8226 leukemia
[45] = tested on: CCRF-CEM leukemia
[46] = tested on: MDA-MB-435
[47] = tested on: HCT-116 colon
[48] = tested on: HOP-62 NSCLC
[49] = tested on: SR leukemia
[50] = tested on: OVCAR-5 ovarian
[51] = tested on: SF-295 CNS
[52] = tested on: UO-31 renal
[53] = tested on: 786-0 renal
[54] = tested on: UACC-257 melanoma
[55] = tested on: EKVX NSCLC
[56] = tested on: BT-549 breast
[57] = tested on: HS 578T breast
[58] = tested on: HL-60(TB) leukemia
[59] = tested on: MOLT-4 leukemia

Compound: c1ccc2c[n+](CCCCCCCCCC[n+]3ccc4ccccc4c3)ccc2c1
- TGI [1]: > 10 µM
- TGI [2]: > 10 µM
- TGI [3]: > 10 µM
- TGI [4]: > 10 µM
- TGI [5]: > 10 µM
- TGI [6]: > 10 µM
- TGI [7]: > 10 µM
- TGI [8]: > 10 µM
- TGI [9]: > 10 µM
- TGI [10]: > 10 µM
- TGI [11]: > 10 µM
- TGI [12]: > 10 µM
- TGI [13]: > 10 µM
- TGI [14]: > 10 µM
- TGI [15]: > 10 µM
- TGI [16]: > 10 µM
- TGI [17]: > 10 µM
- TGI [18]: > 10 µM
- TGI [19]: > 10 µM
- TGI [20]: > 10 µM
- TGI [21]: > 10 µM
- TGI [22]: > 10 µM
- TGI [23]: > 10 µM
- TGI [24]: > 10 µM
- TGI [25]: > 10 µM
- TGI [26]: > 10 µM
- TGI [27]: > 10 µM
- TGI [28]: > 10 µM
- TGI [29]: > 10 µM
- TGI [30]: > 10 µM
- TGI [31]: > 10 µM
- TGI [32]: > 10 µM
- TGI [33]: > 10 µM
- TGI [34]: > 10 µM
- TGI [35]: > 10 µM
- TGI [36]: > 10 µM
- TGI [37]: > 10 µM
- TGI [38]: > 10 µM
- TGI [39]: > 10 µM
- TGI [40]: > 10 µM
- TGI [41]: > 8.94 µM
- TGI [42]: > 10 µM
- TGI [43]: > 10 µM
- TGI [44]: > 10 µM
- TGI [45]: > 10 µM
- TGI [46]: > 10 µM
- TGI [47]: > 10 µM
- TGI [48]: > 10 µM
- TGI [49]: > 10 µM
- TGI [50]: > 10 µM
- TGI [51]: > 10 µM
- TGI [52]: > 10 µM
- TGI [53]: > 10 µM
- TGI [54]: > 10 µM
- TGI [55]: > 10 µM
- TGI [56]: > 10 µM
- TGI [57]: > 10 µM
- TGI [58]: > 10 µM

Compound: O=[N+]([O-])c1cc(Cl)cc2c1nc(NCCO)c1ccccc12
- TGI [1]: > 100 µM
- TGI [2]: 0.236 µM
- TGI [3]: 3.96 µM
- TGI [4]: > 80.2 µM
- TGI [59]: 34 µM
- TGI [5]: > 94 µM
- TGI [7]: > 100 µM
- TGI [8]: > 100 µM
- TGI [9]: > 100 µM
- TGI [10]: > 100 µM
- TGI [11]: > 100 µM
- TGI [12]: > 60.5 µM
- TGI [13]: > 100 µM
- TGI [14]: > 100 µM
- TGI [15]: > 100 µM
- TGI [16]: 15.9 µM
- TGI [17]: > 100 µM
- TGI [18]: > 100 µM
- TGI [19]: > 100 µM
- TGI [20]: > 100 µM
- TGI [21]: 57.1 µM
- TGI [22]: 15.7 µM
- TGI [23]: > 80.9 µM
- TGI [24]: 43.8 µM
- TGI [25]: > 100 µM
- TGI [26]: > 88 µM
- TGI [27]: > 100 µM
- TGI [28]: > 100 µM
- TGI [29]: > 81.7 µM
- TGI [30]: > 43 µM
- TGI [31]: > 72.4 µM
- TGI [32]: > 100 µM
- TGI [33]: > 100 µM
- TGI [34]: > 100 µM
- TGI [35]: 93.7 µM
- TGI [36]: > 70.4 µM
- TGI [37]: > 100 µM
- TGI [38]: 56.4 µM
- TGI [39]: > 60 µM
- TGI [40]: 62.9 µM
- TGI [41]: > 100 µM
- TGI [42]: > 100 µM
- TGI [43]: 19.3 µM
- TGI [44]: > 100 µM
- TGI [45]: > 100 µM
- TGI [46]: > 100 µM
- TGI [47]: > 100 µM
- TGI [48]: > 100 µM
- TGI [49]: 7.09 µM
- TGI [50]: > 63 µM
- TGI [51]: > 100 µM
- TGI [52]: > 100 µM
- TGI [53]: > 100 µM
- TGI [54]: 54.8 µM
- TGI [55]: > 100 µM
- TGI [56]: > 82.1 µM
- TGI [57]: > 100 µM
- TGI [58]: > 56.2 µM

From PubChem BioAssay (NCI)
